Test results: PMC3280214, “Structure Based Discovery of Small Molecules to Regulate the Activity of Human Insulin Degrading Enzyme” (PLoS ONE, 2012)
“And” between values parts separate entries of the source, which are not always exact repeats. Equal entries are not always repeated. “Also recorded” adds a separate entry of the source.

Assays:
IDE [1] = biological target: T1, IDE (Homo sapiens, UniProt P14735); test: Degradation of FITC-insulin-mAb by IDE; type: biochemical; settings: for increase of IDE-mediated insulin (FITC-insulin-mAb) degradation: 20 µM compound; for effect of ATP on IDE activity for insulin degradation in presence of compound: 0.1 mM ATP; for EC50: dose response, Sigmoidal Hill 4 parameter fit; for increase of initial rate of proteolysis of FITC-insulin bound with antibody: wild type IDE, presence vs absence of compound
T1 construct: made in house; host or cells: E. coli BL21
T1 sequence (P14735 1-1019): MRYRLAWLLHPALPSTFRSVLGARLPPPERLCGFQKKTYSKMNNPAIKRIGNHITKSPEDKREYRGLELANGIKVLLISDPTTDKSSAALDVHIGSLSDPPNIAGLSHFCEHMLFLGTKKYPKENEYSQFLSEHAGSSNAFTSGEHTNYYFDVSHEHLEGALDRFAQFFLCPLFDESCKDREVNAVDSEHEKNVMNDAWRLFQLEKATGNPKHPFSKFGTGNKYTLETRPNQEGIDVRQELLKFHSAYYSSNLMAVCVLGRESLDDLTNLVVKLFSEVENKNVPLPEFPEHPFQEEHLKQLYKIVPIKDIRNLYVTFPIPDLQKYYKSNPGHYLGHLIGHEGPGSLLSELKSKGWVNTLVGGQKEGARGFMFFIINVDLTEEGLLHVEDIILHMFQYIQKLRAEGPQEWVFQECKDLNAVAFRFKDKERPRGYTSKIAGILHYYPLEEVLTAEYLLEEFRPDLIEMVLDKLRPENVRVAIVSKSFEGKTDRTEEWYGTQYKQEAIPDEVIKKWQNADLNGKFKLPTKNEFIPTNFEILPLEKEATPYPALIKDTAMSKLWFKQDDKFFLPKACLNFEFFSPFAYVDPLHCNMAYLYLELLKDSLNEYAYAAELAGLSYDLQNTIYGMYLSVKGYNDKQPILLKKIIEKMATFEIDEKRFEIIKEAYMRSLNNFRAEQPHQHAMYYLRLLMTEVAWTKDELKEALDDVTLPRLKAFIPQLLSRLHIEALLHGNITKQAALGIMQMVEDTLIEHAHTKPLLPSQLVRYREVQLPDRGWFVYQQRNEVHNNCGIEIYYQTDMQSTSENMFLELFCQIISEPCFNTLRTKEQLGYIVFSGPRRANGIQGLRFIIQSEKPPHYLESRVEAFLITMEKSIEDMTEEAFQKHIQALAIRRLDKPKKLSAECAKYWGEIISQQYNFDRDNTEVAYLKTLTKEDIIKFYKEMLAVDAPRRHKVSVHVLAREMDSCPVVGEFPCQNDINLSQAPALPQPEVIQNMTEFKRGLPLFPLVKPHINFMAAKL
Method: (§1) The 10 compounds given in Table 1 were subjected to further characterization and their effect was measured on the proteolytic activity of IDE using different substrates. Initially, activity assays were carried out at fixed 20 µM concentrations for all molecules to identify the effect of those compounds on IDE activity. IDE activity was quantified by monitoring the change in fluorescence for the proteolysis of fluorogenic-substrate V, FITC- insulin-bound antibody, and FAβB by recombinant human IDE purified from E.coli BL21 [6], [18], [19]. […] Also, D6 increased the amyloid-β degradation by 20% (Fig. S1C). Further, D10 enhanced IDE-mediated FITC-insulin-mAb and substrate V degradation by 290% and 65%, respectively (Fig. S1A, B). Next, an EC50 value of each molecule that enhanced IDE activity was determined with a dose response assay, where specific activity of IDE was measured with different concentrations of the lead compounds and then the plot was fit to Sigmoidal Hill-4 parameter equation. […] EC50 value for D3 on insulin degradation was approximately measured as 20 µM (Fig. S2C), whereas EC50 value for D6 on amyloid-β degradation was 2 µM (Fig. S2D). […] Among all these four compounds, D10 seems to be the potent activator of IDE, when proteolysis of insulin is considered.
In order to measure degradation of insulin by IDE, FITC-insulin is bound to the monoclonal mouse anti-human-insulin, so that the rotation of free FITC and possible changes in fluorescence polarization could be prevented. We performed enzymatic assays, using only FITC-insulin bound antibody as a background fluorescence and checked the effects of compounds on the cleavage of FITC-insulin-mAb. FITC-insulin is bound to mouse anti human insulin antibody in PBS at 37°C for 1 hour, which is higher than the optimum time required to obtain maximum binding of insulin-FITC conjugate and mAb. It is observed that 400 nM mAb completely binds to 50 nM FITC-insulin (Fig. S7). Since molecular weights of FITC-insulin and mAb are about 5.8 kDa and 60 kDa respectively, we observed very slight shift in the gel as expected. In figure S7, it is observed in lane 4 that 50 nM (100 ng) insulin is completely bound to 400 nM mAb in lane 4 (Fig. S7). […] The binding between insulin and mAb is shown by performing (%5 and %15) native polyacrylamide gel electrophoresis.
The utility of these novel compounds were tested on degradation of insulin by IDE. First insulin was labeled with FITC as described previously. Briefly, 500 mg insulin dissolved in 1.5 ml of 0.1 M Na-carbonate, at pH 7, and 0.2 mM EDTA. Then, 4.5 mg FITC was dissolved in 200 µl acetone and was added dropwise to previous solution at room temperature for 20 h ([FITC]∶[insulin], 3∶1). Finally, unreacted FITC was removed by dialysis and the FITC-insulin was stored at −20°C. The proteolysis of insulin by IDE was monitored by measuring the changes in fluorescence, where the reaction was carried out with 100 nM of FITC- insulin-mAb and IDE (80 ng) in 100 µl KH2PO4 buffer at a pH of 7.3. Reaction was carried out at 37°C for different time intervals (0–4 hours). The increase in fluorescence was monitored by using Fluoroskan Ascent FL microplate reader (Thermo).
(§2) The effect of the lead compounds on the initial rate of proteolysis of IDE was determined by measurement in fluorescence with time both in the presence and absence of the lead compounds. The kinetic data for IDE-mediated insulin, substrate V and amyloid-β degradation were plotted and fitted using SigmaPlot software (Sigmoidal, Hill, 4 parameter). For the initial rate calculations, kinetic data were fitted using SigmaPlot software (Hyperbola; Single Rectangular I, 3 Parameter).

IDE [2] = biological target: T1, IDE; test: Degradation of fluorogenic substrate V by IDE; type: biochemical; settings: for increase of IDE-mediated substrate V degradation: 20 µM compound; for EC50: dose response, Sigmoidal Hill 4 parameter fit
Method: as §1
To assess the utility of these novel compounds as chemical regulators for IDE activity, we used fluorescence assay with fluorogenic substrate V (7-methoxycoumarin-4-yl-acetyl-NPPGFSAFK-2, 4-dinitrophenyl). Reaction was carried out in the presence of 105 µl of 10 µl of 40 µM substrate V; 10 µl of 0.02 mg/ml of IDE in 83 µl of 30 mM KH2PO4 at pH of 7.3, and various concentrations (0–35 µM) compounds and also with various time intervals (0–4 hours). The reaction mixture was incubated at 37°C for 2.5 h. The hydrolysis of substrate V was monitored using a Tecan Safire2 microplate reader with excitation and emission wavelengths set at 300 and 395 nm, respectively.
as §2

Row | SMILES | increase of IDE-mediated insulin (FITC-insulin-mAb) degradation (IDE [1]) | effect of ATP on IDE activity for insulin degradation in presence of compound (IDE [1]) | EC50 (IDE [1]) | increase of initial rate of proteolysis of FITC-insulin bound with antibody (IDE [1]) | increase of IDE-mediated substrate V degradation (IDE [2]) | EC50 (IDE [2]) | increase of initial rate of substrate V degradation (IDE [2]; presence vs absence of compound)
1 | COc1ccc(C2C(C(=O)Nc3ccccc3)=C(C)N=c3sc(=Cc4cn(C)nc4C)c(=O)n32)cc1 (centres unmarked) [Compound D3] | 72% | did not change significantly; also recorded: no effect | ~20 µM | ~7.5 fold |  |  | 
2 | Nc1c(C(=O)Nc2ccccc2F)c2ccccn2c1C(=O)c1ccc2c(c1)CCCC2 [Compound D4] | 60% | did not change significantly; also recorded: no effect | 13 µM | ~12 fold | 36% | 7 µM | 
3 | Cc1nn(-c2ccccc2)c2nc(-c3cccc([N+](=O)[O-])c3)n3c4ccccc4nc3c2c1=O [Compound D10] | 290% and ~275% | did not change significantly; also recorded: no effect | 12 µM | ~49 fold | 65% and 60% | 13 µM | about 2 fold
